Results taken from patent US20130004588A1, “DIVALENT CATION CONTAINING COMPOSITIONS AND METHODS FOR TREATING AND/OR PREVENTING ENZYMATIC IRRITATION” (priority 2011, published 2013).

Columns and labels:
[1] = test system: trypsin; test: EnzChek trypsin inhibition assay, zinc oxide/acid mixtures and zinc oxide containing formulations (Example 4); type: biochemical; conditions: for % trypsin inhibitory activity: Table 5
Protocol: (§1) The objective of the following experiment was to determine whether and to what extent adding an acid to a formulation containing zinc oxide had on inhibition of trypsin activity in an in vitro assay. The inhibition of trypsin-induced cleavage of a fluorescent casein peptide was measured using the EnzChek™ protease assay kit, following manufacturer's instructions (EnzChek™ Protease Assay Kits Product Information, Revised; Molecular Probes, Eugene Oreg.). Briefly, mixtures of zinc oxide and acid at different concentrations were prepared in 1×PBS (pH 7.4) and their pH was recorded as listed in the Tables 5-8. Trypsin working solution (Sigma, St. Louis, Mo., unit/mL) was prepared in digestion buffer provided in the assay kit. Stock solution of BODIPY FL casein (trypsin substrate, mg/mL) was prepared by adding 0.2 mL to the substrate vials (provided in kit), and the final substrate working solution (10 microgram/mL) was prepared by dilution in digestion buffer (pH 7.8). Following incubation of the trypsin, with or without the test materials (50 μl), with the BODIPY fluorescent casein substrate, at room temperature for one hour, fluorescence was measured (excitation 485 nm/emission 530 nm) using a SpectraMax microtiter plate reader (Molecular Devices Corporation, Sunnyvale, Calif.) and Softmax Pro software (Molecular Devices Corporation). Each experiment was performed in three replicates.
For preparations, samples were diluted in 1×PBS at 1:10 ratio and subjected to centrifugation at 13,200 rpm for 1 min using Eppendorf Centrifuge (Model 5415D, Eppendorf AG, Hamburg, Germany) to remove the solid formulation ingredients. The supernatants (50 μl) were used for trypsin inhibitory activity analyses as described above. For preparations, samples were diluted in 10, or 20 or 40% ethanol and subjected to centrifugation at 13,200 rpm for 1 min using Eppendorf Centrifuge (Model 5415D, Eppendorf AG, Hamburg, Germany) to remove the solid formulation ingredients. The supernatants (50 μl) were used for trypsin inhibition assay. Possible effects of ethanol solution (10, 20 or 40% ethanol) on trypsin inhibition activity were tested in the same study and found no significant impact.

[2] = test system: trypsin; test: Inhibition of trypsin-induced cleavage of fluorescent casein, EnzChek protease assay (cations and salt forms, Examples 1 and 2); type: biochemical
Protocol: The inhibition of trypsin-induced cleavage of a fluorescent casein peptide was measured using the EnzChek™ protease assay kit, following manufacturer's instructions (EnzChek™ Protease Assay Kits Product Information, Revised; Molecular Probes, Eugene Oreg.). Briefly, test materials at different concentrations were prepared in 1×phosphate buffered saline (PBS, pH 7.4). Trypsin working solution (Sigma, St. Louis, Mo., unit/mL) was prepared in digestion buffer provided in the assay kit. Stock solution of BODIPY FL casein (trypsin substrate, mg/mL) was prepared by adding 0.2 mL to the substrate vials (provided in kit), and the final substrate working solution (10 microgram/mL) was prepared by dilution in digestion buffer (pH 7.8). […] Each experiment was performed in three replicates.

[3] = test system: trypsin; test: EnzChek trypsin inhibition assay, mixtures of talc with divalent cation salts (Example 3); type: biochemical; conditions: for With Talc trypsin inhibition activities (%): all tested materials at 0.1% (g/mL); for Hypothetically calculated additive value of salt and Talc: Table 4
Protocol: as §1, with “a divalent cation” for “an acid”, “talc inhibited” for “a formulation containing zinc oxide had on inhibition of”, “Briefly, mixtures of zinc oxide and acid at different concentrations were prepared in 1×PBS (pH 7.4) and their pH was recorded as listed in the Tables 5-8.” left out, “materials,” for “materials (50 μl),”, “nm /emission” for “nm/emission”

[4] = molecular target: T1, trypsin (Bos taurus, UniProt P00760); conditions: low concentrations, around 0.001 M; cited from earlier work
T1 sequence (P00760 24-246): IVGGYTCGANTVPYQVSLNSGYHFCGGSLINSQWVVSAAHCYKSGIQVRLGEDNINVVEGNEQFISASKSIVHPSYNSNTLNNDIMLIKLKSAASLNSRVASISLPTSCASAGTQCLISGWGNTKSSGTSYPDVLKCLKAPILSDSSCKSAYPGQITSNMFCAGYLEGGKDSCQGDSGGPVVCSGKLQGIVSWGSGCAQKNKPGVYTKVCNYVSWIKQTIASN

CC(=O)O [acetic acid]
% trypsin inhibitory activity ([1]; no ZnO, 0.01% acetic acid, pH 6.84): −11.18 +/− 2.61% | % trypsin inhibitory activity ([1]; no ZnO, 0.05% acetic acid, pH 4.75): 25.81 +/− 2.13%

[O]=[Zn] [ZnO, zinc oxide]
% trypsin inhibitory activity ([1]; 0.1% ZnO with 0.01% acetic acid, pH 7.28): 1.85 +/− 1.34% | % trypsin inhibitory activity ([1]; 0.1% ZnO with 0.05% acetic acid, pH 6.03): 49.16 +/− 1.43% | % trypsin inhibitory activity ([1]; 0.1% ZnO, no acetic acid, pH 7.61): −2.6 +/− 2.76% | % trypsin inhibitory activity ([1]; 1% ZnO with 0.01% acetic acid, pH 7.85): 15.82 +/− 1.68% | % trypsin inhibitory activity ([1]; 1% ZnO with 0.05% acetic acid, pH 6.08): 58.19 +/− 0.73% | % trypsin inhibitory activity ([1]; 1% ZnO, no acetic acid, pH 8.07): 5.40 +/− 1.24% | trypsin inhibitory activity (in words) ([1]; conclusion from Tables 5-8): minimal protease activity

O.O.[Cl][Cu][Cl] [(II) chloride dihydrate]
% trypsin inhibitory activity ([2]; Table 1, 0.01% (g/mL)): 64.98% | % trypsin inhibitory activity ([2]; Table 1, 0.10% (g/mL)): 99.34% | % trypsin inhibitory activity ([2]; Table 1, 1% (g/mL)): 108.34%

[Cl-].[Cl-].[Sr+2] [Strontium chloride]
% trypsin inhibitory activity ([2]; Table 1, 0.01% (g/mL)): 6.51% | % trypsin inhibitory activity ([2]; Table 1, 0.10% (g/mL)): 11.78% | % trypsin inhibitory activity ([2]; Table 1, 1% (g/mL)): 47.05%

O.O.O.O.[Cl][Fe][Cl] [Iron (II) chloride tetrahydrate]
% synergistic activity relative to hypothetic additive value ([3]; Table 3, 0.1% (g/mL)): −12.35% | With Talc trypsin inhibition activities (%) ([3]; Table 3): 64.53% | % trypsin inhibitory activity ([2]; Table 1, 0.01% (g/mL)): −3.24% | % trypsin inhibitory activity ([2]; Table 1, 0.10% (g/mL)): 64.84% | % trypsin inhibitory activity ([2]; Table 1, 1% (g/mL)): 112.23%

[Ca+2].[Cl-].[Cl-] [Calcium chloride]
% synergistic activity relative to hypothetic additive value ([3]; Table 3, 0.1% (g/mL)): −0.26% | With Talc trypsin inhibition activities (%) ([3]; Table 3): 26.43%

[Cl-].[Na+] [Sodium chloride, reference compound]
% trypsin inhibitory activity ([2]; Table 1, 0.01% (g/mL)): −7.57% | % trypsin inhibitory activity ([2]; Table 1, 0.10% (g/mL)): −4.15% | % trypsin inhibitory activity ([2]; Table 1, 1% (g/mL)): 10.88%

[Ag+] [Ag+]
inhibition of the esterase activity of trypsin [4]: inhibited

[Hg+2] [Hg++]
inhibition of the esterase activity of trypsin [4]: inhibited

[Cl-].[Li+] [Lithium chloride, reference compound]
% trypsin inhibitory activity ([2]; Table 1, 0.01% (g/mL)): 8.71% | % trypsin inhibitory activity ([2]; Table 1, 0.10% (g/mL)): 7.56% | % trypsin inhibitory activity ([2]; Table 1, 1% (g/mL)): −0.56%

[Cl-].[Cl-].[Mg+2] [Magnesium chloride]
With Talc trypsin inhibition activities (%) ([3]; Table 3): 20.05% | Hypothetically calculated additive value of salt and Talc ([3]; 0.1% MgCl2, 1% Talc): 12.44% | Hypothetically calculated additive value of salt and Talc ([3]; 0.5% MgCl2, 1% Talc): 22.93% | Hypothetically calculated additive value of salt and Talc ([3]; 1% MgCl2, 1% Talc): 25.55% | trypsin inhibitory activity (in words) ([3]; talc and magnesium chloride alone or combined): moderate to low levels

CC(=O)[O-].CC(=O)[O-].O.[Ca+2] [Calcium acetate monohydrate]
% synergistic activity relative to hypothetic additive value ([3]; Table 3, 0.1% (g/mL)): 3.10% | With Talc trypsin inhibition activities (%) ([3]; Table 3): 24.6%

O=[N+]([O-])[O-].[Ag+] [Silver nitrate, reference compound]
% trypsin inhibitory activity ([2]; Table 1, 0.01% (g/mL)): −2.43% | % trypsin inhibitory activity ([2]; Table 1, 0.10% (g/mL)): 2.91% | % trypsin inhibitory activity ([2]; Table 1, 1% (g/mL)): 5.37%

[Cu+2] [Cu++]
inhibition of the esterase activity of trypsin [4]: inhibited

[Cl-].[Cl-].[Zn+2] [Zinc chloride]
% synergistic activity relative to hypothetic additive value ([3]; Table 3, 0.1% (g/mL)): −13.01% | With Talc trypsin inhibition activities (%) ([3]; Table 3): 77.96% | % trypsin inhibitory activity ([2]; Table 1, 0.01% (g/mL)): 42.99% | % trypsin inhibitory activity ([2]; Table 1, 0.10% (g/mL)): 88.51% | % trypsin inhibitory activity ([2]; Table 1, 1% (g/mL)): 105.87% | % trypsin inhibitory activity ([2]; Table 2, 0.01% weight (g/mL)): 41.25% | % trypsin inhibitory activity ([2]; Table 2, 0.10% weight (g/mL)): 87.69% | % trypsin inhibitory activity ([2]; Table 2, 1% weight (g/mL)): 98.75%

CC(=O)[O-].CC(=O)[O-].[Zn+2] [Zinc acetate dihydrate]
% synergistic activity relative to hypothetic additive value ([3]; Table 3, 0.1% (g/mL)): −15.70% | With Talc trypsin inhibition activities (%) ([3]; Table 3): 60.18%

CC(O)C(=O)[O-].CC(O)C(=O)[O-].[Zn+2] (stereo not drawn) [Zinc lactate]
% trypsin inhibitory activity ([2]; Table 2, 0.01% weight (g/mL)): 23.01% | % trypsin inhibitory activity ([2]; Table 2, 0.10% weight (g/mL)): 36.36% | % trypsin inhibitory activity ([2]; Table 2, 1% weight (g/mL)): 87.95%

Zinc gluconate
% trypsin inhibitory activity ([2]; Table 2, 0.01% weight (g/mL)): 25.33% | % trypsin inhibitory activity ([2]; Table 2, 0.10% weight (g/mL)): 40.93% | % trypsin inhibitory activity ([2]; Table 2, 1% weight (g/mL)): 85.52%

CC(=O)[O-].CC(=O)[O-].O.O.O.O.[Mg+2] [Magnesium acetate tetrahydrate]
Salt alone trypsin inhibition activities (%) ([3]; Table 3, 0.1% (g/mL)): 0.83% | With Talc trypsin inhibition activities (%) ([3]; Table 3): 17.83% | % trypsin inhibitory activity ([2]; Table 2, 0.10% weight (g/mL)): −3.09%
